Data: patent US12275733B2, “Substituted pyrido[3,4-b]indoles for the treatment of cartilage disorders” (Sanofi, priority 2016, dated 2025)

How the values were obtained:
[1] = system: ATDC5 cells; assay: Chondrogenesis activity assay in ATDC5 cells (collagen type II induction, immunofluorescence); assay type: cell-based, mouse; conditions: Mus musculus; for EC50: collagen type II induction in ATDC5 cells, concentration reaching 50% of maximum induction; for Emax: maximum percent induction of collagen type II relative to internal reference compound at 10 μM, ATDC5 cells
In short: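 Collagen type II was stained in fixed, permeabilized cells with an Alexa Fluor 488 secondary and measured by high-content fluorescence imaging. ATDC5 cells had 4 days at 37 °C in insulin-supplemented differentiation medium with compound, typically 40 nM–10 μM, 0.1% DMSO. DMSO wells and a 10 μM internal reference compound were used for normalization.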

[2] = system: primary human chondrocyte pellet cultures; assay: Chondrogenesis activity assay in primary human chondrocyte pellet cultures (proteoglycan (aggrecan) induction, Blyscan assay); assay type: cell-based; conditions: for EC50: 336 h, proteoglycan (aggrecan) induction, primary human chondrocyte pellets, 2 weeks culture; for Emax: Homo sapiens, Chondrocyte, maximum percent proteoglycan (aggrecan) induction relative to the internal reference compound at 10 μM
Method: B) Chondrogenesis Activity Assay in Primary Human Chondrocyte Pellet Cultures
In this assay human articular chondrocytes are harvested by enzymatic digestion from articular cartilage and passaged several times to dedifferentiate the chondrocytes and to propagate the cells. Cells are cultured as cell pellets in the presence of the compounds of the invention over 2 weeks, and the chondrogenic differentiation is quantified by the production of the chondrogenic marker aggrecan (proteoglycan).
In detail, primary chondrocytes were harvested by enzymatic digestion from cartilage of osteoarthritis patients undergoing knee joint replacement surgery, and cultured in vitro. Cells were passaged one or two times and aliquots were cryopreserved. To initiate chondrogenesis experiments, cell aliquots were thawn, cultured in Chondrocyte Growth Medium (CGM, Lonza, #CC-3216) and passaged twice to further propagate and dedifferentiate cells. Pellet cultures were initiated by seeding 2.5×10E5 cells per well into a 96-well deep well plate in 600 μl chondrocyte differentiation medium consisting of Dulbecco's Modified Eagle Medium (DMEM, Invitrogen, #41966), 1×ITS-solution (Insulin/Transferrin/sodium selenite; 100× solution: Invitrogen, #51500056), 5 μg/mL linoleic acid (Sigma, #L1012-1G), 1× nonessential amino acids (100× solution: Invitrogen, #11140); 10 nM Dexamethasone, 2 ng/ml TGF-β1 (transforming growth factor β1) and 10 μg/ml ascorbic acid. Cells were spun to pellets by centrifugation (10 min, 400×g). Test compounds dissolved in DMSO were added to yield increasing compound concentrations, typically from 40 nM to 10 μM, and a final DMSO concentration of 0.1%, and the cell pellets cultured at 37° C., and 5% CO2 for 2 weeks. On each 96-well plate, control wells containing no test compound but the same concentration of DMSO, i.e. untreated cells, were included and used as reference for the determination of the effect of the test compounds on the cells, and wells containing an internal reference compound at a concentration of 10 μM were included and used as positive control and for standardizing the results. Chondrocyte differentiation medium and the compounds were exchanged twice weekly until harvest of the pellets.
For harvest of the pellets, medium was removed and the pellet was homogenized by enzymatic digestion. 100 μl of protease solution containing 0.4 mg/ml papain, 50 mM sodium phosphate, 4 mM EDTA and 0.48 mg/ml L-cysteine was added to the pellet in each well of a 96-well plate, the plate was sealed with a plate sealer foil (SILVERseal, Greiner Bio-One) and incubated for 4 to 6 hours at 65° C. with agitation.
The concentration of proteoglycan (aggrecan) was determined by quantification of the sulfated glycosaminoglycan side chains of aggrecan using the Blyscan assay (Kit from Biocolor). Aliquots of the papain-digest were transferred to 400 μl of Blyscan dye solution and incubated at room temperature for 45 min with agitation (1200 rpm). The mixture was centrifuged at 3760×g for 45 min, the supernatant was discarded, and the stained pellet was redissolved in 400 μl of Blyscan dissociation reagent by rotation until the precipitate completely resolved. Optical density was measured at 656 nm using a Tecan Saphire2 instrument, and the amount of proteoglycan determined against a standard curve with chondroitin-4-sulfate.
Induction of proteoglycan (aggrecan) was calculated for each compound concentration relative to the control (untreated cells, i.e. no test compound added), and an EC50 value (effective concentration 50 (in μM (micromollliter)), i.e. the compound concentration at which the effect of the compound on proteoglycan (aggrecan) induction reaches 50% of the maximum induction) was calculated using a sigmoidal signal fit procedure. […]

EC50 [1]	SMILES	Emax [1]	EC50 [2]	Emax [2]
710 nM	FC(F)(F)Cn1c2cnccc2c2cc(Cl)cc(-c3cnn(Cc4cccnc4)c3)c21 [Example 2, 6-Chloro-8-(1-(pyridin-3-ylmethyl)-1H-pyrazol-4-yl)-9-(2,2,2-trifluoroethyl)-9H-pyrido[3,4-b]indole]	> 80%	4.4 µM	> 200%
490 nM	CCn1c2c(-c3cnn(Cc4cccnc4)c3)cc(Br)cc2c2ccnc(C)c21 [Example 5, 6-Bromo-9-ethyl-1-methyl-8-(1-pyridin-3-ylmethyl-1H-pyrazol-4-yl)-9H-pyrido[3,4-b]indole]	> 80%	1.3 µM	> 200%
120 nM	Cc1nccc2c1[nH]c1c(-c3ccc(OCC4(C)COC4)cc3)cc(Cl)c(C)c12 [Example 8, 6-Chloro-1,5-dimethyl-8-[4-(3-methyl-oxetan-3-ylmethoxy)-phenyl]-9H-pyrido[3,4-b]indole]	> 80%	0.26 µM	100 to 200%
690 nM	OCCn1cc(-c2cc(Cl)cc3c4ccncc4n(CC(F)(F)F)c23)cn1 [Example 10, 2-(4-[6-Chloro-9-(2,2,2-trifluoroethyl)-9H-pyrido[3,4-b]indol-8-yl]pyrazol-1-yl)ethanol]	> 80%	2.4 µM	40 to 100%
3900 nM	FC(F)(F)Cn1c2cnccc2c2cc(Cl)cc(-c3cnn(-c4ccccc4)c3)c21 [Example 11, 6-Chloro-8-(1-phenyl-1H-pyrazol-4-yl)-9-(2,2,2-trifluoroethyl)-9H-pyrido[3,4-b]indole]	50 to 80%	7.9 µM	40 to 100%
120 nM	Cc1nccc2c1[nH]c1c(-c3ccc(OCCn4cccn4)cc3)cc(Cl)cc12 [Example 13, 6-Chloro-1-methyl-8-[4-(2-(1H-pyrazol-1-yl)ethoxy)-phenyl]-9H-pyrido[3,4-b]indole]	> 80%	1.1 µM	> 200%
> 10000 nM	CCn1c2c(-c3ccnn3C)cc(Cl)cc2c2ccnc(C)c21 [Example 19, 6-Chloro-9-ethyl-1-methyl-8-(2-methyl-2H-pyrazol-3-yl)-9H-pyrido[3,4-b]indole]	50 to 80%	6.9 µM	40 to 100%
> 3300 nM	CCn1c2c(-c3cnn(C)c3)cc(Br)cc2c2cc(C)nc(C)c21 [Example 21, 6-Bromo-9-ethyl-1,3-dimethyl-8-(1-methyl-1H-pyrazol-4-yl)-9H-pyrido[3,4-b]indole]	20 to 50%	4.3 µM	> 200%
630 nM	COc1ccc(-c2cc(Cl)cc3c4ccnc(C)c4n(C)c23)cc1 [Example 22, 6-Chloro-8-(4-methoxy-phenyl)-1,9-dimethyl-9H-pyrido[3,4-b]indole]	> 80%	4 µM	> 200%
97 nM	COc1ccc(-c2cc(Cl)c(C)c3c2[nH]c2c(C)nccc23)cc1 [Example 27, 6-Chloro-8-(4-methoxy-phenyl)-1,5-dimethyl-9H-pyrido[3,4-b]indole]	> 80%	3.5 µM	> 200%
> 1100 nM	Cc1nccc2c1[nH]c1c(-c3ccc(CNC4CCCC4)cc3)cc(Cl)cc12 [Example 29, [4-(6-Chloro-1-methyl-9H-pyrido[3,4-b]indol-8-yl)-benzyl]-cyclopentyl-amine]	< 20%	1.5 µM	100 to 200%
120 nM	COc1ccc(-c2cc(C#N)cc3c2[nH]c2c(C)nccc23)cc1 [Example 33, 8-(4-Methoxy-phenyl)-1-methyl-9H-pyrido[3,4-b]indole-6-carbonitrile]	> 80%	0.83 µM	100 to 200%
> 1100 nM	Cc1nccc2c1[nH]c1c(-c3ccc(OCc4ccc5ccccc5n4)cc3)cc(Cl)cc12 [Example 34, 6-Chloro-1-methyl-8-[4-(quinolin-2-ylmethoxy)-phenyl]-9H-pyrido[3,4-b]indole]	20 to 50%	3.8 µM	> 200%
> 3300 nM	Cc1nccc2c1[nH]c1c(-c3cccc(Oc4ncc(Br)cn4)c3)cc(Cl)cc12 [Example 37, 8-[3-(5-Bromo-pyrimidin-2-yloxy)-phenyl]-6-chloro-1-methyl-9H-pyrido[3,4-b]indole]	20 to 50%	4.3 µM	100 to 200%
170 nM	Cc1nccc2c1[nH]c1c(-c3ccc(OCc4nccn4C)cc3)cc(Cl)cc12 [Example 39, 6-Chloro-1-methyl-8-[4-(1-methyl-1H-imidazol-2-ylmethoxy)-phenyl]-9H-pyrido[3,4-b]indole]	> 80%	3.7 µM	> 200%
130 nM	Cc1nccc2c1[nH]c1c(-c3ccc(OCCn4cccn4)cc3)cc(Cl)c(C)c12 [Example 45]	> 80%	0.22 µM	40 to 100%
1400 nM	Clc1cc(-c2ccc(Cl)nc2Cl)c2c(c1)c1ccncc1n2CC1CC1 [Example 46, 6-Chloro-9-cyclopropylmethyl-8-(2,6-dichloro-pyridin-3-yl)-pyrido[3,4-b]indole]	> 80%	1 µM	100 to 200%
650 nM	CCn1c2cnccc2c2cc(Cl)cc(-c3ccc(Cl)nc3Cl)c21 [Example 55, 6-Chloro-8-(2,6-dichloro-pyridin-3-yl)-9-ethyl-9H-pyrido[3,4-b]indole]	> 80%	0.95 µM	100 to 200%
> 1100 nM	Cc1nccc2c1[nH]c1c(-c3cnccc3Cl)cc(Cl)cc12 [Example 97, 6-Chloro-8-(4-chloro-pyridin-3-yl)-1-methyl-9H-pyrido[3,4-b]indole]	< 20%	5.1 µM	> 200%
390 nM	CCn1c2c(-c3cnn(Cc4cccnc4)c3)cc(Cl)cc2c2ccnc(C)c21 [Example 116, 6-Chloro-9-ethyl-1-methyl-8-(1-pyridin-3-ylmethyl-1H-pyrazol-4-yl)-9H-pyrido[3,4-b]indole]	> 80%	1.3 µM	100 to 200%
> 10000 nM	COC(=O)c1cc2c([nH]c3c(-c4ccc(Cl)nc4Cl)cc(Cl)cc32)c(C)n1 [Example 117, 6-Chloro-8-(2,6-dichloro-pyridin-3-yl)-1-methyl-9H-pyrido[3,4-b]indole-3-carboxylic acid methyl ester]	< 20%	27 µM	< 40%
> 1100 nM	Cc1nccc2c1[nH]c1c(-c3ccc(N4CCN(C)CC4)nc3)cc(Cl)cc12 [Example 118, 6-Chloro-1-methyl-8-[6-(4-methyl-piperazin-1-yl)-pyridin-3-yl]-9H-pyrido[3,4-b]indole]	20 to 50%	1.3 µM	100 to 200%
> 3300 nM	Cc1nccc2c1[nH]c1c(-c3cccnc3OCc3ccccc3)cc(Cl)cc12 [Example 119, 8-(2-Benzyloxy-pyridin-3-yl)-6-chloro-1-methyl-9H-pyrido[3,4-b]indole]	< 20%	21 µM	40 to 100%
> 3300 nM	COc1nc(Cl)ccc1-c1cc(Cl)cc2c1[nH]c1c(C)nccc12 [Example 122, 6-Chloro-8-(6-chloro-2-methoxy-pyridin-3-yl)-1-methyl-9H-pyrido[3,4-b]indole]	20 to 50%	3.6 µM	100 to 200%
